Key:
Design in all cases: key: 0: normal development; 1: Less damaged; 2: Slightly damaged; 3: Moderately damaged; 4: Severely damaged; 5: All killed
[1] = system: sugar beat; assay: Soil treatment test for upland field; type: in vivo; conditions: 500 g/ha, glass house 25° C., 3 weeks
Summary of the method: (§1)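 Soil treatment, 500 g/ha, sprayed onto soil surface after sowing; alluvial Ube soil; 0.05% surfactant in diluent; glasshouse, avg 25° C, 3 wk; visual score 0–5 (5 = all killed).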

[2] = system: wheat; assay: Soil treatment test for upland field; type: in vivo; conditions: 500 g/ha, glass house 25° C., 3 weeks
Summary of the method: as §1

[3] = system: corn; assay: Soil treatment test for upland field; type: in vivo; conditions: 500 g/ha, glass house 25° C., 3 weeks
Summary of the method: as §1

[4] = system: soybean; assay: Soil treatment test for upland field; type: in vivo; conditions: 500 g/ha, glass house 25° C., 3 weeks
Summary of the method: as §1

[5] = system: cotton; assay: Soil treatment test for upland field; type: in vivo; conditions: 500 g/ha, glass house 25° C., 3 weeks
Summary of the method: as §1

[6] = system: solgum; assay: Soil treatment test for upland field; type: in vivo; conditions: 500 g/ha, glass house 25° C., 3 weeks
Summary of the method: as §1

[7] = system: barnyardgrass; assay: Foliar spread test for upland field; type: in vivo, Echinochloa crusgalli; conditions: foliar spray 500 ppm, 3 weeks, rank vs non-treated
Summary of the method: (§2)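 Two-week-old glasshouse seedlings on volcanic ash soil were treated by foliar spray at 500 ppm, with 0.5% surfactant in the diluent. Effects were graded visually after three weeks, from 0 for no injury to 5 for complete kill.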

[8] = system: Large crabgrass; assay: Foliar spread test for upland field; type: in vivo, Digitaria adscendens; conditions: foliar spray 500 ppm, 3 weeks, rank vs non-treated
Summary of the method: as §2

[9] = system: monochoria; assay: Herbicidal test for paddy field; type: in vivo, Monochoria vaginalis; conditions: paddy field pot, 500 g/ha dropwise at 1.5 leaf stage of barnyardgrass, 3 weeks, rank vs non-treated
Summary of the method: (§3)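 Under flooded conditions (3 cm water over Ube soil), each compound was delivered by pipet as a diluted wettable powder (0.05% surfactant) at 500 g/ha, timed to 1.5-leaf barnyardgrass. Plants stayed 3 weeks in a 25° C glasshouse before injury was graded from 0 (normal) to 5 (all killed).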

[10] = system: Large crabgrass; assay: Soil treatment test for upland field; type: in vivo, Digitaria adscendens; conditions: 500 g/ha, glass house 25° C., 3 weeks
Summary of the method: as §1

[11] = system: flat sedge; assay: Herbicidal test for paddy field; type: in vivo, Cyperus serotinus; conditions: paddy field pot, 500 g/ha dropwise at 1.5 leaf stage of barnyardgrass, 3 weeks, rank vs non-treated
Description: Wagner pots, each having an area of 1/5000 are, were packed with Ube soil (alluvial soil) and planted with seeds or tubers of young rice plant, barnyardgrass, bulrush, flat sedge and monochoria. Then, the pots were filled with water to a depth of 3 cm.
Each wettable powder of the desired compounds (I) shown in Table 1 prepared in accordance with Example 2 was diluted with water containing a surfactant (0.05%) and subjected to dropwise addition treatment by using pipet so that an effective concentration of the compound (I) in each herbicide became 500 g/ha at 1.5 leaf stage of barnyardgrass.
These plants were controlled in a glass house at an average temperature of 25° C. for 3 weeks, and then herbicidal effects thereof were investigated.
The herbicidal effects are evaluated according to the following 6 ranks as compared with non-treated district.
(0: normal development, 1: Less damaged, 2: Slightly damaged, 3: Moderately damaged, 4: Severely damaged, 5: All killed).

[12] = system: soybean; assay: Foliar spread test for upland field; type: in vivo; conditions: foliar spray 500 ppm, 3 weeks, rank vs non-treated
Summary of the method: (§4)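 Scoring used a 0–5 scale, where 0 meant normal development and 5 meant all plants killed, assessed 3 weeks after treatment. Plants had been grown about 2 weeks from seed in volcanic ash soil before a uniform spray at 500 ppm containing 0.5% surfactant.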

[13] = system: cotton; assay: Foliar spread test for upland field; type: in vivo; conditions: foliar spray 500 ppm, 3 weeks, rank vs non-treated
Summary of the method: as §4

[14] = system: livid amaranth; assay: Soil treatment test for upland field; type: in vivo, Amaranthus lividus; conditions: 500 g/ha, glass house 25° C., 3 weeks
Summary of the method: as §1

[15] = system: bulrush; assay: Herbicidal test for paddy field; type: in vivo, Scrips juncoides; conditions: paddy field pot, 500 g/ha dropwise at 1.5 leaf stage of barnyardgrass, 3 weeks, rank vs non-treated
Summary of the method: as §3

SMILES | Effects Sugar beat [1] | Effects Wheat [2] | Effects Corn [3] | Effects Soybean [4] | Effects Cotton [5] | Effects Solgum [6] | Effects Barnyardgrass [7] | Effects Large crabgrass [8] | Effect Monochoria [9] | Effects Large crabgrass [10] | Effect Flat sedge [11] | Effects Soybean [12] | Effects Cotton [13] | Effects Livid amaranth [14] | Effect Bulrush [15]
CCC(Oc1ccc(F)c(C(F)(F)F)c1)c1nc2cc(F)ccc2o1 (stereo not drawn) [Compound 119, 1-(5-fluorobenzoxazol-2-yl)-1-(4-fluoro-3-(trifluoromethyl)phenoxy)propane] | 5 | 0 | 0 | 0 | 0 | 0 | 1 | 1 | 4 | 5 | 2 | 2 | 1 | 5 | –
CCC(Oc1ccc(F)c(C(F)(F)F)c1)c1nc2cc(Cl)ccc2o1 (stereo not drawn) [Compound 139] | 5 | 1 | 2 | 1 | 1 | 2 | 2 | 2 | 5 | 5 | – | 5 | 3 | 5 | 5
CCCC(Oc1cccc(C(F)(F)F)c1)c1nc2cc(Cl)ccc2o1 (stereo not drawn) [Compound 142, 1-(5-chlorobenzoxazol-2-yl)-1-(3-(trifluoromethyl)phenoxy)butane] | 5 | 1 | 1 | 3 | 0 | 1 | 2 | 3 | 5 | 5 | – | 4 | 3 | 5 | 3
CCC(Oc1ccc(F)c(C(F)(F)F)c1)c1nc2cc(Br)ccc2o1 (stereo not drawn) [Compound 165] | 5 | 0 | 2 | 0 | 0 | 1 | 2 | 3 | 5 | 5 | 3 | 5 | 3 | 5 | –
CCCC(Oc1ccc(F)c(C(F)(F)F)c1)c1nc2cc(C(F)(F)F)ccc2o1 (stereo not drawn) [Compound 199] | 5 | 0 | 1 | 2 | 2 | 1 | 2 | 2 | 5 | 5 | – | 4 | 3 | 5 | 5
CCCC(Oc1cccc(C(F)(F)F)c1)c1nc2cc(C(F)(F)F)ccc2o1 (stereo not drawn) [Compound 200] | 5 | 1 | 1 | 0 | 1 | 1 | 2 | 3 | 5 | 5 | – | 3 | 3 | 5 | 2
CCCC(Oc1cccc(C(F)(F)F)c1)c1nc2cc(C#N)c(C#N)cc2o1 (stereo not drawn) [Compound 317] | 5 | 1 | 2 | 1 | 0 | 1 | – | – | 5 | 5 | 5 | – | – | 5 | 3
CCC(Oc1cccc(C(F)(F)F)c1)c1nc2cc(Cl)c(C)cc2o1 (stereo not drawn) [Compound 339, 1-(5-chloro-6-methylbenzoxazol-2-yl)-1-(3-(trifluoromethyl)phenoxy)propane] | 4 | 1 | 1 | 1 | 0 | 1 | 2 | 3 | 5 | 5 | – | 3 | 3 | 5 | 4
CCC(Oc1cccc(C(F)(F)F)c1)c1nc2cc(F)c(C(F)(F)F)cc2o1 (stereo not drawn) [Compound 471] | 5 | 1 | – | 2 | 1 | 3 | – | 5 | 5 | 5 | 5 | – | – | 5 | 2
CCC(Oc1cccc(OC(F)(F)F)c1)c1nc2cc(C#N)c(C#N)cc2o1 (stereo not drawn) [Compound 527] | 5 | 1 | 2 | 1 | 0 | 1 | – | 2 | 4 | 5 | 3 | – | – | 5 | 3
CCC(Oc1cccc(C(F)(F)F)c1)c1nc2cc(C#N)c(Cl)cc2o1 (stereo not drawn) [Compound 529] | 5 | – | 1 | 1 | – | 1 | 3 | 4 | 5 | 5 | 4 | – | – | 5 | 5
CCCC(Oc1cccc(C(F)(F)F)c1)c1nc2cc(C#N)c(Cl)cc2o1 (stereo not drawn) [Compound 532] | 5 | 2 | 1 | 1 | 1 | 1 | 2 | 4 | 5 | 5 | 2 | – | – | 5 | 5
CCCC(Oc1ccc(F)c(C(F)(F)F)c1)c1nc2cc(C#N)c(Cl)cc2o1 (stereo not drawn) [Compound 533] | 5 | 1 | 0 | 0 | 0 | 0 | 2 | 3 | 4 | 5 | 2 | – | – | 5 | –
